Measurements reported in US7834045B2, “N-substituted pyrazolyl carboxanilides” (Bayer CropScience AG, priority 2003, dated 2010).
One block for each molecule: values may come before it.

Key:
Puccinia recondita = assay: Puccinia test (wheat)/protective; type: in vivo; conditions: protective, application rate 500 g/ha, evaluation 10 days after inoculation
Experimental: • Solvent: 25 parts by weight of N,N-dimethylacetamide • Emulsifier: 0.6 part by weight of alkylaryl polyglycol ether To produce a suitable preparation of active compound, 1 part by weight of active compound is mixed with the stated amounts of solvent and emulsifier, and the concentrate is diluted with water to the desired concentration. To test for protective activity, young plants are sprayed with the preparation of active compound at the stated application rate. After the spray coating has dried on, the plants are sprayed with a conidia suspension of Puccinia recondita. The plants remain in an incubation cabinet at 20° C. and 100% relative atmospheric humidity for 48 hours. The plants are then placed in a greenhouse at a temperature of about 20° C. and a relative atmospheric humidity of 80% to promote the development of rust pustules. Evaluation is carried out 10 days after the inoculation. 0% means an efficacy which corresponds to that of the control, whereas an efficacy of 100% means that no infection is observed.

Sphaerotheca fuliginea = assay: Sphaerotheca test (cucumber)/protective; type: in vivo; conditions: protective, application rate 750 g/ha, evaluation 7 days after inoculation
Experimental: • Solvent: 49 parts by weight of N,N-dimethylformamide • Emulsifier: 1 part by weight of alkylaryl polyglycol ether To produce a suitable preparation of active compound, 1 part by weight of active compound is mixed with the stated amounts of solvent and emulsifier, and the concentrate is diluted with water to the desired concentration. To test for protective activity, young cucumber plants are sprayed with the preparation of active compound at the stated application rate. 1 day after the treatment, the plants are inoculated with a spore suspension of Sphaerotheca fuliginea. The plants are then placed in a greenhouse at 70% relative atmospheric humidity and a temperature of 23° C. Evaluation is carried out 7 days after the inoculation. 0% means an efficacy which corresponds to that of the control, whereas an efficacy of 100% means that no infection is observed.

[1] = log P determination by HPLC on reversed-phase column (EEC Directive 79/831 Annexe V.A8); type: physicochemical; conditions: reversed-phase HPLC column (C 18), pH 2.3, C 18, 43° C., preparation examples
Experimental: The log P values given in the preparation examples and tables above are determined in accordance with EEC Directive 79/831 Annexe V.A8 by HPLC (High Performance Liquid Chromatography) on a reversed-phase column (C 18). Temperature: 43° C.
The determination in the acidic range is carried out at pH 2.3 using the mobile phases 0.1% aqueous phosphoric acid and acetonitrile; linear gradient from 10% acetonitrile to 90% acetonitrile.
Calibration was carried out using unbranched alkan-2-ones (with 3 to 16 carbon atoms) with known log P values (determination of the log P values by the retention times using linear interpolation between two successive alkanones).

Podosphaera leucotricha = assay: Podosphaera test (apple)/protective; type: in vivo; conditions: protective, application rate 100 g/ha, evaluation 10 days after inoculation
Experimental: (§1) • Solvents: 24.5 parts by weight of acetone • 24.5 parts by weight of dimethylacetamide • Emulsifier: 1 part by weight of alkylaryl polyglycol ether
(§2) To produce a suitable preparation of active compound, 1 part by weight of active compound is mixed with the stated amounts of solvents and emulsifier, and the concentrate is diluted with water to the desired concentration.
To test for protective activity, young plants are sprayed with the preparation of active compound at the stated application rate. After the spray coating has dried on, the plants are inoculated with an aqueous spore suspension of the apple mildew pathogen Podosphaera leucotricha. The plants are then placed in a greenhouse at about 23° C. and a relative atmospheric humidity of about 70%.
(§3) Evaluation is carried out 10 days after the inoculation. 0% means an efficacy which corresponds to that of the control, whereas an efficacy of 100% means that no infection is observed.

Venturia inaequalis = assay: Venturia test (apple)/protective; type: in vivo; conditions: protective, application rate 100 g/ha, evaluation 10 days after inoculation
Experimental: as §1, §2
To test for protective activity, young plants are sprayed with the preparation of active compound at the stated application rate. After the spray coating has dried on, the plants are inoculated with an aqueous conidia suspension of the apple scab pathogen Venturia inaequalis and then remain in an incubation cabinet at about 20° C. and 100% relative atmospheric humidity for one day.
The plants are then placed in a greenhouse at about 21° C. and a relative atmospheric humidity of about 90%.
as §3

Botrytis cinerea = assay: Botrytis test (bean)/protective; type: in vivo; conditions: protective, application rate 500 g/ha, evaluation 2 days after inoculation
Experimental: as §1
To produce a suitable preparation of active compound, 1 part by weight of active compound is mixed with the stated amounts of solvent and emulsifier, and the concentrate is diluted with water to the desired concentration.
To test for protective activity, young plants are sprayed with the preparation of active compound at the stated application rate. After the spray coating has dried on, 2 small pieces of agar colonized by Botrytis cinerea are placed onto each leaf. The inoculated plants are placed in a dark chamber at about 20° C. and 100% relative atmospheric humidity.
2 days after the inoculation, the size of the infected areas on the leaves is evaluated. 0% means an efficacy which corresponds to that of the control, whereas an efficacy of 100% means that no infection is observed.

Structure (SMILES): Cc1nn(C)c(F)c1C(=O)N(C)c1ccccc1C(C)CC(C)(C)C (centres unmarked)
Efficacy in % (Puccinia recondita): 100%

Structure (SMILES): Cc1nn(C)c(F)c1C(=O)N(C)c1ccccc1C(C)CC(C)C (centres unmarked)
Efficacy in % (Puccinia recondita): 100%

Structure (SMILES): CC(CC(C)(C)C)c1ccccc1N(C)C(=O)c1c(C(F)(F)F)nn(C)c1F (centres unmarked)
Efficacy in % (Sphaerotheca fuliginea): 100%

chromatographic logP [1]: 4.63
Structure (SMILES): CC(=O)N(C(=O)c1c(C(F)(F)F)nn(C)c1F)c1ccccc1C(C)CC(C)(C)C (centres unmarked) [Example 1, N-acetyl-5-fluoro-1-methyl-3-(trifluoromethyl)-N-[2-(1,3,3-trimethylbutyl)phenyl]-1H-pyrazole-4-carboxamide]

chromatographic logP [1]: 4.4
Structure (SMILES): CCOC(=O)C(=O)N(C(=O)c1c(C)nn(C)c1F)c1ccccc1C(C)CC(C)(C)C (centres unmarked) [Example 2, ethyl {[(5-fluoro-1,3-dimethyl-1H-pyrazol-4-yl)carbonyl][2-(1,3,3-trimethylbutyl)phenyl]amino}(oxo)acetate]

chromatographic logP [1]: 2.65
Structure (SMILES): CC(=O)Nc1ccccc1C(C)CC(C)C (centres unmarked) [III-1, N-[2-(1,3-dimethylbutyl)phenyl]acetamide]

Structure (SMILES): COCN(C(=O)c1c(C(F)(F)F)nn(C)c1F)c1ccccc1C(C)CC(C)(C)C (centres unmarked) [drawing 19]
Efficacy in % (Podosphaera leucotricha): 98%

Structure (SMILES): CCOC(=O)C(=O)N(C(=O)c1c(C)nn(C)c1F)c1ccccc1C(C)CC(C)(C)C (centres unmarked) [drawing 20]
Efficacy in % (Podosphaera leucotricha): 97%

Structure (SMILES): COCN(C(=O)c1c(C(F)(F)F)nn(C)c1F)c1ccccc1C(C)CC(C)(C)C (centres unmarked) [drawing 21]
Efficacy in % (Venturia inaequalis): 100%

Structure (SMILES): CCOC(=O)C(=O)N(C(=O)c1c(C)nn(C)c1F)c1ccccc1C(C)CC(C)(C)C (centres unmarked) [drawing 22]
Efficacy in % (Venturia inaequalis): 100%

Structure (SMILES): COCN(C(=O)c1c(C(F)(F)F)nn(C)c1F)c1ccccc1C(C)CC(C)(C)C (centres unmarked) [drawing 23]
Efficacy in % (Botrytis cinerea): 100%

Structure (SMILES): CCOC(=O)C(=O)N(C(=O)c1c(C)nn(C)c1F)c1ccccc1C(C)CC(C)(C)C (centres unmarked) [drawing 24]
Efficacy in % (Botrytis cinerea): 97%

Structure (SMILES): COCN(C(=O)c1c(C(F)(F)F)nn(C)c1F)c1ccccc1C(C)CC(C)(C)C (centres unmarked) [drawing 25]
Efficacy in % (Puccinia recondita): 100%

Structure (SMILES): COCN(C(=O)c1c(C(F)(F)F)nn(C)c1F)c1ccccc1C(C)CC(C)(C)C (centres unmarked) [drawing 29]
Efficacy in % (Sphaerotheca fuliginea): 100%
